Experimental data taken from US20190389903A1, “INSULIN A-CHAIN DERIVED PEPTIDE FRAGMENT AND PHARMACEUTICAL COMPOSITION FOR PREVENTING OR TREATING DIABETES OR DIABETIC WOUNDS, CONTAINING THE SAME” (SUPADELIXIR INC., priority 2017, published 2019).

Key:
Assay type in all cases: cell-based
[1] = tested on: glucose transporter (GLUT4); assay: Translocation of glucose transporter to cell membrane by immunofluorescence; settings: HaCaT cells; 0.001, 0.01 and 0.1 μM in serum-free DMEM, 5 min; FIG. 7
Procedure: In addition, the translocation of the glucose transporter to the cell membrane in HaCaT cells was evaluated through immunofluorescence analysis. Specifically, HaCaT cells (CLS 300493) were treated with the peptide of SEQ ID NO: 3 and Humulin R (positive control) at concentrations of 0.001, 0.01 and 0.1 μM in a serum-free DMEM medium for 5 min. The cells were washed with a PBS solution, treated with a GLUT4 antibody (Santa Cruz, Calif., USA) for 1 hr, treated with rhodamine red for 40 min, and observed using a confocal laser microscope (Olympus FluoView FW1000; Olympus, Tokyo, Japan).

HaCaT cells [2] = assay: Cell migration test (Culture-Insert 2 Well); settings: peptide 0.01, 0.1, 1 μM or Humulin R 1 μM for 5 min, observed after 10 hr and 13 hr, FIG. 3
Procedure: For cell migration testing, a Culture-Insert 2 Well (Ibidi™), having two separate culture spaces therein, was used. When cells are cultured on the above plate, the cells are attached to both sides, between which an empty space is formed, followed by removal of the insert well and further culturing, whereby the cells of the two sides migrate to the empty space of the plate. HaCaT cells (CLS 300493) were cultured on the above plate until the cells reached 90% confluency and then the insert well was removed, after which the cells were treated for 5 min with the peptide of SEQ ID NO: 3 (0.01 μM, 0.1 μM, 1 μM) or Humulin R (1 μM), and washed with PBS, after which the medium was replaced with a cell culture medium (DMEM serum medium). After 10 hr and 13 hr, cell migration was observed through a phase contrast microscope.

HaCaT cells [3] = assay: 2-NBDG glucose uptake analysis; settings: 0.001, 0.01, 0.1 μM in serum-free media, 5 min, FIG. 5
Procedure: 2-NBDG glucose, which is a fluorescent deoxyglucose analogue, is introduced into cells by a glucose transporter, like glucose, but accumulates without actual metabolism, and thus the extent of glucose uptake may be determined based on the accumulated amount of fluorescence. A 2-NBDG glucose uptake kit (Biovision) was used for 2-NBDG glucose uptake analysis. Specifically, 3×10^4 HaCaT cells (CLS 300493) were seeded in each well of a 24-well plate, cultured in a 5% CO2 incubator at 37° C. for 24 hr with a DMEM serum medium, washed with PBS, and treated with the peptide of SEQ ID NO: 3 and Humulin R such that the concentrations in serum-free media were 0.001 μM, 0.01 μM, and 0.1 μM, followed by incubation for 5 min. A mixed solution of a 2-NBDG reagent and a glucose uptake enhancer was prepared in accordance with the manufacturer's protocol, after which the cells were treated therewith for 1 hr, washed with the supplied cold 1× analysis buffer, and observed using a confocal laser microscope (Olympus FluoView FW1000; Olympus, Tokyo, Japan).

[4] = tested on: physical interaction between Grb2 and SOS1; assay: Insulin-like activity: Grb2-SOS1 physical interaction by PLA (proximity ligation assay) in HaCaT cells; settings: 1 μM, 5 min, Humulin R at same concentration, FIG. 1
Procedure: When the insulin signal is transmitted into cells, the physical interaction between Grb2 and SOS1 is increased. After treatment of the cells with the peptide of the present invention, the physical interaction between Grb2 and SOS1 was measured through PLA (proximity ligation assay) and thus insulin-like activity was evaluated. 4.5×10^4 HaCaT cells (CLS 300493) were seeded in a DMEM serum medium in each well of a 24-well microplate and cultured in a 5% CO2 incubator at 37° C. for 24 hr, after which the peptide solution of Example 2 was added such that the peptide concentration of SEQ ID NOS: 1 to 6 in the medium was 1 μM, followed by incubation for 5 min under the same conditions. As a positive control, Humulin R was treated at the same concentration. A control received no treatment. The cells of each well were washed with PBS, treated with 2% formaldehyde for 15 min to thus fix the same, and then treated with 0.1% TritonX-100 for 5 min to thus increase antibody permeability into the cells. […] The physical interactions of the Grb2 and SOS1 antibodies were quantified by measuring the PLA signals detected in individual cells using a confocal laser microscope (Olympus FluoView FW1000; Olympus, Tokyo, Japan).

HaCaT cells [5] = assay: Cell proliferation test (CCK-8); settings: 0.1, 1 and 10 μM in serum-free media, 24, 48 and 72 hr, FIG. 4
Procedure: For cell proliferation testing, 5×10^3 HaCaT cells (CLS 300493) were seeded in each well of a 96-well plate, and then treated with a solution containing the peptide of SEQ ID NO: 3 (total volume: 90 μl) such that the concentrations in serum-free media were 0.1, 1 and 10 μM. Cell proliferation for 24, 48 and 72 hr was observed using a microplate reader (Versa Max, USA). For measurement, treatment was performed for 2 hr using 10 μl of a CCK-8 (cell counting kit-8) solution at the same time every day.

insulin receptor [6] = assay: Immunofluorescence analysis of endocytosis of FITC-conjugated peptide in HaCaT cells; settings: FITC-conjugated peptide 1 μM, 5, 15, 30, 60 min tested, FIG. 2A
insulin receptor, sequence (P06213 28-758 limits assumed): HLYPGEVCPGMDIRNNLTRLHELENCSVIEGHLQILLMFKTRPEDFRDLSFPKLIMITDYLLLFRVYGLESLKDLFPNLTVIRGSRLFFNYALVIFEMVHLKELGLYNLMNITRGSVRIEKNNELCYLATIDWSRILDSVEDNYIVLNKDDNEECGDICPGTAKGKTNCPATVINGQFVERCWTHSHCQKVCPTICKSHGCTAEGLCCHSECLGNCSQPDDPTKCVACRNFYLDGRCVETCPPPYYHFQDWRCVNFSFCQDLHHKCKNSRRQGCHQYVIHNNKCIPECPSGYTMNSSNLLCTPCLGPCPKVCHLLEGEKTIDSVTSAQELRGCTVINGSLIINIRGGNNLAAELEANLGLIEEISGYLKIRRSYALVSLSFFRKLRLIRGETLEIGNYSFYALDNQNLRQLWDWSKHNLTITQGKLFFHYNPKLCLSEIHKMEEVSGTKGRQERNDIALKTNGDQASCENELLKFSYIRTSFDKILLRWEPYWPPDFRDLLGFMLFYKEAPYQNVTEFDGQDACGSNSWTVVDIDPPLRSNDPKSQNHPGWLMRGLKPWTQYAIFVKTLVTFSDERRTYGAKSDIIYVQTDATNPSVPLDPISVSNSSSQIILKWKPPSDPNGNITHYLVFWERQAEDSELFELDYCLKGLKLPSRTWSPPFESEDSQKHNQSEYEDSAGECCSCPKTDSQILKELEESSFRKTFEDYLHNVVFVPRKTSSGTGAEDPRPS
insulin receptor, sequence (P06213 763-1382 partner limits assumed): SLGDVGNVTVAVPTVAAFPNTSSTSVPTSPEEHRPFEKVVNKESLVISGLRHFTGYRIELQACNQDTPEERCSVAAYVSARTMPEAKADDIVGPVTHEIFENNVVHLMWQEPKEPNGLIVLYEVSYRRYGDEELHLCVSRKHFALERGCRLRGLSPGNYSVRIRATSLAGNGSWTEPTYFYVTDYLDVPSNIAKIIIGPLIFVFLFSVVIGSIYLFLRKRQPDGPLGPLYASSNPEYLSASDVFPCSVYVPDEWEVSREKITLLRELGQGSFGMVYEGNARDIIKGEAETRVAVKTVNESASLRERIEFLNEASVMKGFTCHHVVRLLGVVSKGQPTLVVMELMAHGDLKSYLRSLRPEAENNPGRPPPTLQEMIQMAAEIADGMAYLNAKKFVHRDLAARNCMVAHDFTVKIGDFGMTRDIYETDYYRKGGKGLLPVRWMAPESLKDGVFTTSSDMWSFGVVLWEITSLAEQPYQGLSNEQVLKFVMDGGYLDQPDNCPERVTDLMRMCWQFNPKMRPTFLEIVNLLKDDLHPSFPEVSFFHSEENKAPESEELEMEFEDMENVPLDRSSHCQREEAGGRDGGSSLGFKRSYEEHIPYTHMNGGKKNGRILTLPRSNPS
Procedure: In order to evaluate whether, like insulin, the peptide of the present invention induces endocytosis by binding to the insulin receptor, immunofluorescence analysis was performed. A fluorescent material (FITC) was conjugated to the peptide of SEQ ID NO: 3. HaCaT cells (CLS 300493) were pretreated in the same manner as in Test Example 1, added with the peptide solution of SEQ ID NO: 3 having the fluorescent material conjugated thereto such that the final concentration was 1 μM, and then treated for 5 min, 15 min, 30 min, and 60 min. The cells were washed three times with a PBS solution and then mounted onto a slide to give a test specimen, which was then observed using a confocal laser microscope (Olympus FluoView FW1000; Olympus, Tokyo, Japan). […] The insulin binds to the insulin receptor in the cells, followed by endocytosis (internalization) and then degradation.

insulin receptor [7] = assay: RNA interference: endocytosis after insulin receptor siRNA transfection in HaCaT cells; settings: FITC-conjugated peptide 1 μM, 5 min, siRNA 10 nM or 30 nM vs no treatment, FIG. 2B
Procedure: Based on the above test results, in order to determine whether the effect of the peptide of the present invention on endocytosis is mediated by the insulin receptor, RNA interference was analyzed. HaCaT cells (CLS 300493) were cultured in a DMEM serum medium until the cells reached 50-60% confluency, followed by transient transfection using the insulin receptor siRNA (Santa Cruz, Calif., USA) (no treatment, 10 nM treatment, or 30 nM treatment) and lipofectamine RNAiMAX (Invitrogen) in accordance with the manufacturer's protocol to thus inhibit the insulin receptor expression, after which the cells were treated for 5 min using the peptide of SEQ ID NO: 3 having the fluorescent material conjugated thereto at a concentration of 1 μM. The fluorescence intensity of each group was observed using a confocal laser microscope (Olympus FluoView FW1000; Olympus, Tokyo, Japan).

insulin receptor [8] = assay: 2-NBDG glucose uptake after inhibition of insulin receptor expression using siRNA; settings: peptide 1 μM, 5 min; siRNA 10 nM or 30 nM vs no treatment; HaCaT cells; FIG. 6
Procedure: Based on the above test results, in order to evaluate whether, like insulin, the peptide of the present invention enhances glucose uptake through the insulin receptor, insulin receptor expression was inhibited using siRNA, after which 2-NBDG glucose uptake testing was performed. HaCaT cells (CLS 300493) were cultured in a DMEM serum medium until the cells reached 50-60% confluency, followed by transient transfection using the insulin receptor siRNA (Santa Cruz, Calif., USA) (no treatment, 10 nM treatment, or 30 nM treatment) and lipofectamine RNAiMAX (Invitrogen) in accordance with the manufacturer's protocol to thus inhibit insulin receptor expression, after which the cells were treated for 5 min using the peptide of SEQ ID NO: 3 at a concentration of 1 μM. A mixed solution of a 2-NBDG reagent and a glucose uptake enhancer was prepared in accordance with the manufacturer's protocol, after which the cells were treated therewith for 1 hr, washed with the supplied cold 1× analysis buffer, and observed using a confocal laser microscope (Olympus FluoView FW1000; Olympus, Tokyo, Japan).

Substance | Amount of glucose transporter (GLUT4) in the cell membrane [1] | Cell migration (HaCaT cells [2]) | Glucose uptake (2-NBDG) (HaCaT cells [3]) | Grb2/SOS1 antibody interaction (PLA signals) compared to positive control Humulin R [4] | Cell proliferation (HaCaT cells [5]) | Time after treatment at which highest endocytosis (fluorescence) was observed (insulin receptor [6]) [min] | Incidence of endocytosis in group transiently transfected with insulin receptor siRNA (insulin receptor [7]) | Glucose uptake (2-NBDG) in group transiently transfected with insulin receptor siRNA (insulin receptor [8])
Humulin R: recombinant insulin preparation (injection), used as positive control [reference compound] | increased in the cell membrane in a concentration-dependent manner | increased | increased in a concentration-dependent manner |  |  |  |  | 
Cys-Ser-Leu (CSL; Peptide fragment) [SEQ ID NO: 3] | increased in the cell membrane in a concentration-dependent manner | increased in a concentration-dependent manner | increased in a concentration-dependent manner | significantly higher antibody interaction than the positive control | increased in a concentration-dependent manner | 5 | reduced | reduced
